In patent US10100027B2, “Benzofuran analogue as NS4B inhibitor” (priority 2014, dated 2018):

Test system: HCV genotype 1a (HCV-1a) replicon cells
Test: HCV genotype 1a replicon cell assay (luciferase, Bright-Glo)
Assay type: cell-based
Conditions: Hepatitis C virus, 72 h, HCV-1a (H77) replicon cells, 3 days
Description: (§1) The EC50 and CC50 values of anti-HCV compounds were determined by HCV genotype 1a (HCV-1a) and 1b (HCV-1b) stable transfected replication (replicon) cells. The source of genotype 1a replicon is H77 clones containing K1691R, K2040R and S2204I adaptive mutations. The source of genotype 1b replicon is Con1 clones containing E1202G, T1280I and K1846T adaptive mutations.
(§2) HCV 1a (HCV-1a) and 1b (HCV-1b) gene subtype replicon system contains the related HCV gene subtype non-structural protein gene, G418 resistance gene NEO and luciferase gene, which results in that HCV related protein and luciferase can be stably expressed in cells. By detecting the level of expression of luciferase gene, the level of HCV replication can be determined. Therefore, the system is used as a model for screening the activity of anti-HCV compound in vitro.
(§3) The compound powder was dissolved in 100% DMSO. Then the compound was diluted 5 times with 6 points, and added into the cell plate with Echo liquid handler. Ensure the final concentration of DMSO was 0.5%. Each compound was tested in duplicate.
(§4) 4) Diluting cells to 8×10^4 cells/mL with the culture medium, adding the diluted cells into the compound-containing 96-well plate (Greiner, Cat. #655090) (100 μL/well, 8000 cells/well) with automatic liquid separator (Thermo Scientific). Then place into a 37° C., 5% CO2 incubator for 3 days. Cell control well: no compound, only containing 0.5% DMSO.
(§5) 6) Then adding luciferase substrate Bright-Glo, after incubation for 5 minutes, detecting the luciferase activity by microplate reader Envison (wavelength>700 nm); analyzing the anti-HCV inhibitory activity of the compounds according to luminescence data, which was used to calculate EC50 values.
(§6) The EC50 or CC50 values were obtained by nonlinear fitting regression on inhibition percentage (inh %) data with GraphPad Prism software.

Compound | EC50 [nM]
O=C(c1nc2c(C(F)(F)F)cc(C3CC3)cn2c1Cl)N1CCN(C2CCCC2)C(=O)N1 [YA_0338] | 0.1 to 100
O=C1NN(C(=O)c2nc3c(C(F)(F)F)cc(C4CC4)cn3c2Cl)CCN1CC(F)F [YA_0358] | 100 to 1000
CC(C)N1CCN(C(=O)c2nc3c(C(F)(F)F)cc(C4CC4)cn3c2Cl)NC1=O [YA_0360] | 0.1 to 100
O=C(c1nc2c(C(F)(F)F)cc(C3CC3)cn2c1Cl)N1CCN([C@H]2CC[C@H](O)CC2)C(=O)N1 [YA_0363] | 0.1 to 100
O=C(c1nc2c(C(F)(F)F)cc(C3CC3)cn2c1Cl)N1CCN(C2CCC(F)(F)CC2)C(=O)N1 [YA_0366] | 0.1 to 100
O=C(c1nc2c(C(F)(F)F)cc(C3CC3)cn2c1Cl)N1CCN(C2CC(F)(F)C2)C(=O)N1 [YA_0367] | 0.1 to 100
Cc1cc(C(F)(F)F)c2nc(C(=O)N3CCN(C(C)(C)C)C(=O)N3)c(Cl)n2c1 [YA_0368] | 0.1 to 100
Cc1nnc(C23CCC(NC(=O)c4oc5c(C(F)(F)F)cc(C(C)C)cc5c4Cl)(CC2)CC3)o1 [YD_0059] | 0.1 to 100
O=C(NC12CCC(c3nnco3)(CC1)CC2)c1oc2c(C(F)(F)F)cc(C3CC3)cc2c1Cl [YD_0122] | 0.1 to 100
O=C(c1oc2c(C(F)(F)F)cc(C3CC3)cc2c1Cl)N1CCN(N2CCOC2=O)CC1 [YD_0214] | 0.1 to 100
CC(C)c1cc(C(F)(F)F)c2oc(C(=O)N3CCN(N4CCOC4=O)CC3)c(Cl)c2c1 [YD_0215] | 0.1 to 100
CCCc1cc(C(F)(F)F)c2oc(C(=O)N3CCN(N4CCOC4=O)CC3)c(Cl)c2c1 [YD_0216] | 0.1 to 100
O=C(c1oc2c(C(F)(F)F)cc(C3CC3)cc2c1Cl)N1CCN(N2CCOC2=O)C(=O)C1 [YD_0219] | 0.1 to 100
O=C(c1oc2c(F)cc(C3CC3)cc2c1Cl)N1CCN(N2CCOC2=O)CC1 [YD_0245] | 0.1 to 100
N#Cc1c(C(=O)N2CCN(N3CCOC3=O)CC2)oc2c(C(F)(F)F)cc(C3CC3)cc12 [YD_0250] | 0.1 to 100
O=C(c1oc2c(C(F)(F)F)cc(C3CC3)cc2c1Cl)N1CCN(C23CC(C2)C3)C(=O)C1 [YD_0253] | 100 to 1000
O=C1CN(N2CCN(C(=O)c3oc4c(C(F)(F)F)cc(C5CC5)cc4c3Cl)CC2=O)C(=O)N1 [YD_0272] | 100 to 1000
CN(C)C(=O)C1CCN(C(=O)c2oc3c(C(F)(F)F)cc(C4CC4)cc3c2Cl)CC1 [YD_0273] | 0.1 to 100
O=C(c1oc2c(C(F)F)cc(C3CC3)cc2c1Cl)N1CCN(N2CCOC2=O)CC1 [YD_0278] | 0.1 to 100
O=C(c1oc2c(C(F)(F)F)cc(C3CC3)cc2c1Cl)N1CCCN(N2CCOC2=O)CC1 [YD_0279] | 0.1 to 100
O=C(c1oc2c(C(F)(F)F)cc(C3CC3)cc2c1Cl)N1CCN(C23CCC(CC2)CC3)C(=O)C1 [YD_0280] | 100 to 1000
CC(C)N(C)C(=O)C1CCN(C(=O)c2oc3c(C(F)(F)F)cc(C4CC4)cc3c2Cl)CC1 [YD_0302] | 100 to 1000
CCN(C)C(=O)C1CCN(C(=O)c2oc3c(C(F)(F)F)cc(C4CC4)cc3c2Cl)CC1 [YD_0304] | 100 to 1000
CN1CCN(C(=O)C2CCN(C(=O)c3oc4c(C(F)(F)F)cc(C5CC5)cc4c3Cl)CC2)CC1 [YD_0305] | 100 to 1000

Test system: not listed separately
Test: Cytotoxicity in HCV replicon cells (Cell Titer-fluor)
Assay type: cell-based
Conditions: not given
Description: as §1, §3, §4
5) Adding fluorescence substrate Cell Titer-fluor to the cell well, after incubation for 30 minutes, detecting the signal by microplate reader Envison (Ex at 405 nm and read at 515 nm). The effect of the compounds on the cytotoxicity of HCV replicon cells was analyzed according to the fluorescence data, which was used to calculate the CC50 values.
as §6

Compound | CC50 at 3 days [nM]
O=C(c1nc2c(C(F)(F)F)cc(C3CC3)cn2c1Cl)N1CCN(C2CCCC2)C(=O)N1 [YA_0338] | > 3000
O=C1NN(C(=O)c2nc3c(C(F)(F)F)cc(C4CC4)cn3c2Cl)CCN1CC(F)F [YA_0358] | > 3000
CC(C)N1CCN(C(=O)c2nc3c(C(F)(F)F)cc(C4CC4)cn3c2Cl)NC1=O [YA_0360] | > 3000
O=C(c1nc2c(C(F)(F)F)cc(C3CC3)cn2c1Cl)N1CCN([C@H]2CC[C@H](O)CC2)C(=O)N1 [YA_0363] | > 3000
O=C(c1nc2c(C(F)(F)F)cc(C3CC3)cn2c1Cl)N1CCN(C2CCC(F)(F)CC2)C(=O)N1 [YA_0366] | > 3000
O=C(c1nc2c(C(F)(F)F)cc(C3CC3)cn2c1Cl)N1CCN(C2CC(F)(F)C2)C(=O)N1 [YA_0367] | > 3000
Cc1cc(C(F)(F)F)c2nc(C(=O)N3CCN(C(C)(C)C)C(=O)N3)c(Cl)n2c1 [YA_0368] | > 3000
Cc1nnc(C23CCC(NC(=O)c4oc5c(C(F)(F)F)cc(C(C)C)cc5c4Cl)(CC2)CC3)o1 [YD_0059] | > 3000
O=C(NC12CCC(c3nnco3)(CC1)CC2)c1oc2c(C(F)(F)F)cc(C3CC3)cc2c1Cl [YD_0122] | > 3000
O=C(c1oc2c(C(F)(F)F)cc(C3CC3)cc2c1Cl)N1CCN(N2CCOC2=O)CC1 [YD_0214] | > 3000
CC(C)c1cc(C(F)(F)F)c2oc(C(=O)N3CCN(N4CCOC4=O)CC3)c(Cl)c2c1 [YD_0215] | > 3000
CCCc1cc(C(F)(F)F)c2oc(C(=O)N3CCN(N4CCOC4=O)CC3)c(Cl)c2c1 [YD_0216] | > 3000
O=C(c1oc2c(C(F)(F)F)cc(C3CC3)cc2c1Cl)N1CCN(N2CCOC2=O)C(=O)C1 [YD_0219] | > 3000
O=C(c1oc2c(F)cc(C3CC3)cc2c1Cl)N1CCN(N2CCOC2=O)CC1 [YD_0245] | > 3000
N#Cc1c(C(=O)N2CCN(N3CCOC3=O)CC2)oc2c(C(F)(F)F)cc(C3CC3)cc12 [YD_0250] | > 3000
O=C(c1oc2c(C(F)(F)F)cc(C3CC3)cc2c1Cl)N1CCN(C23CC(C2)C3)C(=O)C1 [YD_0253] | > 3000
O=C1CN(N2CCN(C(=O)c3oc4c(C(F)(F)F)cc(C5CC5)cc4c3Cl)CC2=O)C(=O)N1 [YD_0272] | > 3000
CN(C)C(=O)C1CCN(C(=O)c2oc3c(C(F)(F)F)cc(C4CC4)cc3c2Cl)CC1 [YD_0273] | > 3000
O=C(c1oc2c(C(F)F)cc(C3CC3)cc2c1Cl)N1CCN(N2CCOC2=O)CC1 [YD_0278] | > 3000
O=C(c1oc2c(C(F)(F)F)cc(C3CC3)cc2c1Cl)N1CCCN(N2CCOC2=O)CC1 [YD_0279] | > 3000
O=C(c1oc2c(C(F)(F)F)cc(C3CC3)cc2c1Cl)N1CCN(C23CCC(CC2)CC3)C(=O)C1 [YD_0280] | > 3000
CC(C)N(C)C(=O)C1CCN(C(=O)c2oc3c(C(F)(F)F)cc(C4CC4)cc3c2Cl)CC1 [YD_0302] | > 3000
CCN(C)C(=O)C1CCN(C(=O)c2oc3c(C(F)(F)F)cc(C4CC4)cc3c2Cl)CC1 [YD_0304] | > 3000
CN1CCN(C(=O)C2CCN(C(=O)c3oc4c(C(F)(F)F)cc(C5CC5)cc4c3Cl)CC2)CC1 [YD_0305] | > 3000

Test system: HCV genotype 1b (HCV-1b) replicon cells
Test: HCV genotype 1b replicon cell assay (luciferase, Bright-Glo)
Assay type: cell-based
Conditions: Hepatitis C virus, 72 h, HCV-1b (Con1) replicon cells, 3 days
Description: as §1, §2, §3, §4, §5, §6

Compound | EC50 [nM]
O=C(c1nc2c(C(F)(F)F)cc(C3CC3)cn2c1Cl)N1CCN(C2CCCC2)C(=O)N1 [YA_0338] | 0.1 to 100
O=C1NN(C(=O)c2nc3c(C(F)(F)F)cc(C4CC4)cn3c2Cl)CCN1CC(F)F [YA_0358] | 100 to 1000
CC(C)N1CCN(C(=O)c2nc3c(C(F)(F)F)cc(C4CC4)cn3c2Cl)NC1=O [YA_0360] | 0.1 to 100
O=C(c1nc2c(C(F)(F)F)cc(C3CC3)cn2c1Cl)N1CCN([C@H]2CC[C@H](O)CC2)C(=O)N1 [YA_0363] | 0.1 to 100
O=C(c1nc2c(C(F)(F)F)cc(C3CC3)cn2c1Cl)N1CCN(C2CCC(F)(F)CC2)C(=O)N1 [YA_0366] | 0.1 to 100
O=C(c1nc2c(C(F)(F)F)cc(C3CC3)cn2c1Cl)N1CCN(C2CC(F)(F)C2)C(=O)N1 [YA_0367] | 0.1 to 100
Cc1cc(C(F)(F)F)c2nc(C(=O)N3CCN(C(C)(C)C)C(=O)N3)c(Cl)n2c1 [YA_0368] | 100 to 1000
Cc1nnc(C23CCC(NC(=O)c4oc5c(C(F)(F)F)cc(C(C)C)cc5c4Cl)(CC2)CC3)o1 [YD_0059] | 100 to 1000
O=C(NC12CCC(c3nnco3)(CC1)CC2)c1oc2c(C(F)(F)F)cc(C3CC3)cc2c1Cl [YD_0122] | 100 to 1000
O=C(c1oc2c(C(F)(F)F)cc(C3CC3)cc2c1Cl)N1CCN(N2CCOC2=O)CC1 [YD_0214] | 0.1 to 100
CC(C)c1cc(C(F)(F)F)c2oc(C(=O)N3CCN(N4CCOC4=O)CC3)c(Cl)c2c1 [YD_0215] | 0.1 to 100
CCCc1cc(C(F)(F)F)c2oc(C(=O)N3CCN(N4CCOC4=O)CC3)c(Cl)c2c1 [YD_0216] | 0.1 to 100
O=C(c1oc2c(C(F)(F)F)cc(C3CC3)cc2c1Cl)N1CCN(N2CCOC2=O)C(=O)C1 [YD_0219] | 0.1 to 100
O=C(c1oc2c(F)cc(C3CC3)cc2c1Cl)N1CCN(N2CCOC2=O)CC1 [YD_0245] | 0.1 to 100
N#Cc1c(C(=O)N2CCN(N3CCOC3=O)CC2)oc2c(C(F)(F)F)cc(C3CC3)cc12 [YD_0250] | 0.1 to 100
O=C(c1oc2c(C(F)(F)F)cc(C3CC3)cc2c1Cl)N1CCN(C23CC(C2)C3)C(=O)C1 [YD_0253] | 0.1 to 100
O=C1CN(N2CCN(C(=O)c3oc4c(C(F)(F)F)cc(C5CC5)cc4c3Cl)CC2=O)C(=O)N1 [YD_0272] | 100 to 1000
CN(C)C(=O)C1CCN(C(=O)c2oc3c(C(F)(F)F)cc(C4CC4)cc3c2Cl)CC1 [YD_0273] | 0.1 to 100
O=C(c1oc2c(C(F)F)cc(C3CC3)cc2c1Cl)N1CCN(N2CCOC2=O)CC1 [YD_0278] | 0.1 to 100
O=C(c1oc2c(C(F)(F)F)cc(C3CC3)cc2c1Cl)N1CCCN(N2CCOC2=O)CC1 [YD_0279] | 0.1 to 100
O=C(c1oc2c(C(F)(F)F)cc(C3CC3)cc2c1Cl)N1CCN(C23CCC(CC2)CC3)C(=O)C1 [YD_0280] | 100 to 1000
CC(C)N(C)C(=O)C1CCN(C(=O)c2oc3c(C(F)(F)F)cc(C4CC4)cc3c2Cl)CC1 [YD_0302] | 1000 to 5000
CCN(C)C(=O)C1CCN(C(=O)c2oc3c(C(F)(F)F)cc(C4CC4)cc3c2Cl)CC1 [YD_0304] | 0.1 to 100
CN1CCN(C(=O)C2CCN(C(=O)c3oc4c(C(F)(F)F)cc(C5CC5)cc4c3Cl)CC2)CC1 [YD_0305] | 1000 to 5000
